Measured values published in PubChem BioAssay (NCI).
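Values below derive from 48-hour exposures of cells grown in 96-well plates, with endpoints linearly interpolated between the two concentrations bracketing the appropriate inhibition level. At the GI50, growth is halved. The concentration for full growth arrest is given as TGI.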

Columns and labels:
Test in all cases: NCI tumour cell line growth inhibition, 48 h
HCT-15 colon = tested on: HCT-15 colon
KM12 colon = tested on: KM12 colon
M14 melanoma = tested on: M14 melanoma
MOLT-4 leukemia = tested on: MOLT-4 leukemia
NCI-H460 lung = tested on: NCI-H460 lung
OVCAR-8 ovarian = tested on: OVCAR-8 ovarian
RPMI-8226 leukemia = tested on: RPMI-8226 leukemia
SF-539 CNS = tested on: SF-539 CNS
SR leukemia = tested on: SR leukemia
U251 CNS = tested on: U251 CNS

| SMILES | TGI (HCT-15 colon) [µM] | TGI (KM12 colon) [µM] | TGI (M14 melanoma) [µM] | TGI (MOLT-4 leukemia) [µM] | TGI (NCI-H460 lung) [µM] | TGI (OVCAR-8 ovarian) [µM] | TGI (RPMI-8226 leukemia) [µM] | TGI (SF-539 CNS) [µM] | TGI (SR leukemia) [µM] | TGI (U251 CNS) [µM] | GI50 (HCT-15 colon) [µM] | GI50 (KM12 colon) [µM] | GI50 (NCI-H460 lung) [µM] | GI50 (SF-539 CNS) [µM] |
| --- | --- | --- | --- | --- | --- | --- | --- | --- | --- | --- | --- | --- | --- | --- |
| O=C1NI(C#Cc2ccccc2)c2ccccc21 | > 100 | > 100 | > 100 | > 100 | > 100 | > 100 | > 100 | > 100 | > 100 | > 100 |  |  |  |  |
| COc1cc(C2CC(c3cccc(Nc4ccncc4)c3)=NN2c2ccc(Cl)cc2)cc(OC)c1OC (stereo not drawn) | 3.28 | 3.31 |  |  | 3.13 |  |  | 3.05 |  |  | 1.7 | 1.67 | 1.69 | 1.64 |
| COc1ccc2c(C(=O)c3cn(CCN4CCOCC4)c4ccccc34)cccc2c1 | > 100 | > 100 | > 87.5 | 64.4 | > 100 | > 100 | > 100 | > 100 | > 100 | > 100 |  |  |  |  |
| COC(C)(C)OCCN1CCN(CCN2C3=C(C=C(C(C)=O)C3)Sc3ccccc32)CC1 | 40.9 | 32.6 | 40.4 | 36.7 | 35.5 | 42.1 | 32.8 | 39.8 | 33.2 | 35.2 |  |  |  |  |
| CC1(C)OC2C(O)C(CO)OC2(C(F)F)O1 (stereo not drawn) | > 100 | > 100 | > 100 | > 100 | > 100 | > 100 | > 100 | > 100 | > 100 | > 100 |  |  |  |  |
| CCCOC(=O)CNC(=O)OC(C)(C)C | > 100 | > 100 | > 100 |  | > 100 | > 100 |  | > 100 | > 100 | > 100 |  |  |  |  |
| Cc1cccc2c1Sc1ccccc1C2NC(=O)CCN(C)C (stereo not drawn) | > 100 |  | > 100 | > 100 | > 100 | > 100 | > 100 | > 100 | > 100 | > 100 |  |  |  |  |
| C=CCN(C(=O)CNC(=O)C(F)(F)F)c1cc(OCc2ccccc2)c2c(c1)c(C)cn2S(=O)(=O)c1ccccc1 | > 100 | > 100 | > 100 | > 100 | > 100 | > 100 | > 100 | > 100 |  | > 100 |  |  |  |  |
| COc1ccc(-c2nc3ncccn3c2-c2ccc(SC)cc2)cc1 | > 100 | 13.3 | 12.2 | > 100 | 7.87 | > 100 | 29.2 | 5.85 | 10.6 | 29 |  |  |  |  |
| CCOC(=O)c1c2c(n(Cc3ccccc3)c1C)C(=O)C(=O)c1ccccc1-2 | 2.58 | 3.02 | 0.966 | 1.8 | 1.5 | 1.07 | 0.83 | 0.521 |  | 2.03 |  |  |  |  |
| Nc1n[nH]c(=O)c2c1c(I)cn2C1OC(CO)C(O)C1O (stereo not drawn) | 3.05 | > 100 | 18.8 | 2.29 | 14.1 | 1.44 | 4.53 |  | 1.33 | 4.19 |  |  |  |  |
| CN(C)CCNC(=O)c1cccc2ccc(-c3ccc(F)cc3)nc12 | 16.1 | 33.4 |  | 7.03 | 10.5 | 15.8 | 13.5 | 14.9 |  | 22.3 |  |  |  |  |
| O=C(Nc1ccc([N+](=O)[O-])cc1[N+](=O)[O-])C(=O)C(C(=O)c1ccc2ccccc2c1)C1OC(=O)c2ccccc21 (stereo not drawn) | 30.7 | 40.3 | 30.3 | 62.2 | 28.9 | 21.6 | 68.6 | 18.6 | 16.7 | 16.9 |  |  |  |  |
| Oc1cn(-c2ccc(Cl)cc2)nc1-c1n[nH]c(=S)n1-c1ccccc1 | 14.9 | 31.8 | 20.4 | > 100 | 59.4 | 34.6 | > 100 | 23.1 | 94 | 30.4 |  |  |  |  |
| COc1cc(/C=C/C(=O)Oc2ccc(NC(C)=O)cc2)ccc1C(=O)O/C=C/c1ccccc1 | > 100 | > 100 |  | > 100 | > 100 | > 100 | > 100 | > 100 |  | > 100 |  |  |  |  |
| Nc1ccccc1N=Cc1cc2cc([N+](=O)[O-])ccc2s1 | > 100 | > 100 | 82.8 | 13.6 | 47.5 | 45.7 | 46.8 | 27.4 | > 100 | 28.2 |  |  |  |  |
| Cc1cc2c(cc1C(=O)c1ccc(N)cc1)OCO2 | > 100 | > 100 | > 100 | > 100 | > 100 | > 100 | > 100 | 79.7 | > 100 | > 100 |  |  |  |  |
